Experiments:
[1] = appearance of the final solution (Cosmetics, formulary consideration); type: physicochemical; details: appearance of final solution after reaction with Cu
Excerpt: In certain aspects of the present invention, the catalyst system using transition metals (Cu or Fe) as trace catalytic metals, may require the presence of an optional redox agent (antioxidant) so as to produce H2O2. In order to form hydrogen peroxide, for example, it is necessary for the redox agent to reduce Cu^++ to Cu^+. […] In expanding the number of antioxidants, the following table was assembled after experimentation, based upon reactivity with Cu, the ability to reduce CoQ10 to H2CoQ10 and the appearance of the final solution (formulary consideration).

[2] = tested on: papilla-corium layer of skin; assay: bioreactive skin test (pin-head like projections, activation of the papilla-corium layer); type: in vivo; parameters: key: * = slight bioreactivity; *** = gross bioreactivity
Excerpt: In this assay, compounds are applied to the dermis of an animal and potentially bio-reactive compounds (i.e., those which might function as bio-activating organocatalysts) produce a multiplicity of very small, pin-head like projections on the epidermis produced by activation of the papilla-corium layer. […] The bioreactivity of the formula can be judged by the intensity and time of the reaction.
The formula according to the present invention which are bioreactive in a skin test show a multiplicity of very small, pin-head like projections on the epidermis produced by activation of the papilla-corium layer. […] The activation ensues for about 2-4 hours and is from slight to gross depending on the formulation and returns to the normal skin landscape. The bioreactivity of the formula can be judged by the intensity and time of the reaction.
Essentially, the skin cream formulations containing organocatalyst are tested on skin. Those compositions which are bioreactive in the skin test show a multiplicity of very small, pin-head like projections on the epidermis produced by activation of the papilla-corium layer. The activation continues for about 2-4 hours and is from slight to gross depending on the formulation and returns to the normal skin landscape. The bioreactivity of the formula can be judged by the intensity and time of the reaction.

[3] = solubility of organocatalyst in Eucerin skin cream (table comment); type: physicochemical; details: 20 % by weight in Eucerin skin cream
Protocol: In order to test the relative bioreactivity of organocatalysts according to the present invention, a number of potential organocatalysts were formulated into a skin cream using Eucerin™ at concentrations ranging from 2% to 25% by weight of the final skin cream formulation. These skin creams were formulated by dissolving the organocatalyst at a desired amount into the Eucerin. The formulated compositions were then tested for skin bioreactivity according to the method previously described hereinabove.

[4] = metal chelate; cited from earlier work
[5] = Table 1A, 2 % by weight in Eucerin skin cream
[6] = Table 1A, 25 % by weight in Eucerin skin cream
[7] = Table 1A, 20 % by weight in Eucerin skin cream

Question: With `O=C(O)CCCC[C@@H]1CCSS1` (racemic) [Lipoic Acid] as the compound, how does the Cosmetics [1] read?
Answer: clear solution

Question: With `O=C(O)[C@@H]1CC(O)CN1` (stereo partly shown) [1-4-hydroxyproline] as the compound, how does the Bioreactivity ([2]; Table 1, 2 % by weight) read?
Answer: *

Question: And the Bioreactivity ([2]; Table 1, 25 % by weight)?
Answer: ***

Question: What about the Bioreactivity [2, 5] of the same compound?
Answer: *

Question: And the Bioreactivity [2, 6]?
Answer: ***

Question: Which results are given for `N[C@@H](Cc1ccccc1)C(=O)O` [1-phenylalanine]?
Answer: Bioreactivity ([2]; Table 1, 20 % by weight): *; Bioreactivity [2, 7]: *; Comment (solubility) [3]: low solubility

Question: With `CC(C)(C)OC(=O)[C@@H]1CCCN1` [1-proline-t-butyl ester] as the compound, how does the Bioreactivity ([2]; Table 1, 20 % by weight) read?
Answer: ***

Question: And the Bioreactivity [2, 7]?
Answer: ***

Question: Which Bioreactivity ([2]; in vivo) does the source give for `O=C(O)[C@@H]1CCCN1` [1-proline] here?
Answer: *** and *

Question: What does the source list for `O=C1NCC(C(=O)O)N1` (stereo not shown) [2-imidazolidone-4-carboxylic acid]?
Answer: Bioreactivity ([2]; Table 1, 2 % by weight): *; Bioreactivity ([2]; Table 1, 20 % by weight): ***; Bioreactivity [2, 5]: *; Bioreactivity [2, 7]: ***

Question: With `O=C(O)/C=C/c1ccc(O)c(O)c1` [Caffeic acid] as the compound, how does the Cosmetics [1] read?
Answer: dark brown ppt.

Question: For `O=C([O-])CN(CCN(CC(=O)[O-])CC(=O)O)CC(=O)O.[Cu+2]` [Copper EDTA], which “Affinity Constant” value [4] is on record?
Answer: 10^23

Question: For `N[C@@H](Cc1c[nH]cn1)C(=O)O.[Cu]` [Copper histidine], which “Affinity Constant” value [4] is on record?
Answer: 10^16

Question: With `N[C@@H](CS)C(=O)O` [Cysteine] as the compound, how does the Cosmetics [1] read?
Answer: clear solution

Question: With `CC(=O)N(O)CCCCCNC(=O)CCC(=O)N(O)CCCCCNC(=O)CCC(=O)N(O)CCCCCN` [Desferrioxamine] as the compound, how does the “Affinity Constant” value [4] read?
Answer: 10^30

Question: With `O=C([O-])CN(CCN(CC(=O)[O-])CC(=O)O)CC(=O)[O-].[Fe+3]` [Ferric EDTA] as the compound, how does the “Affinity Constant” value [4] read?
Answer: 10^25

Question: With `Oc1ccccc1O.[Fe+3]` [Ferric catechol] as the compound, how does the “Affinity Constant” value [4] read?
Answer: 10^20

Question: For `O=C(O)c1ccccc1O.[Fe+3]` [Ferric salicylic acid], which “Affinity Constant” value [4] is on record?
Answer: 10^16

Question: For `O=C([O-])CN(CCN(CC(=O)[O-])CC(=O)[O-])CC(=O)[O-].[Fe+2].[H+].[H+]` [Ferrous EDTA], which “Affinity Constant” value [4] is on record?
Answer: 10^25

Question: Which “Affinity Constant” value [4] does the source give for `N[C@@H](Cc1c[nH]cn1)C(=O)O.[Fe+2]` [Ferrous histidine] here?
Answer: 10^16

Question: For `CC(O)C(=O)[O-].CC(O)C(=O)[O-].[Fe+2]` (stereo not shown) [Ferrous lactate], which “Affinity Constant” value [4] is on record?
Answer: 10^12

Question: With `O=C(O)c1cc(O)c(O)c(O)c1` [Gallic acid] as the compound, how does the Cosmetics [1] read?
Answer: ugly brown ppt.

Question: Which Cosmetics [1] does the source give for `N[C@@H](CCC(=O)N[C@@H](CS)C(=O)NCC(=O)O)C(=O)O` [Glutathione] here?
Answer: clear solution

Question: Which “Affinity Constant” value [4] does the source give for `O=C(O)CO` [Glycolic acid] here?
Answer: 10^5

Question: For `CC(=O)N[C@@H](CS)C(=O)O` [N-acetyl cysteine], which Cosmetics [1] is on record?
Answer: clear solution

Question: Which Bioreactivity ([2]; Table 1, 20 % by weight) does the source give for `CC(=O)N1CCC[C@H]1C(=O)O` [N-acetyl-1-proline] here?
Answer: *

Question: And the Bioreactivity [2, 7]?
Answer: *

Question: And the “Comment (solubility)” value [3]?
Answer: low solubility

Question: For `CCCOC(=O)c1cc(O)c(O)c(O)c1` [Propyl gallate], which Cosmetics [1] is on record?
Answer: ugly brown ppt.

Question: For `O=c1[nH]c(=O)c2[nH]c(=O)[nH]c2[nH]1` [Uric acid], which Cosmetics [1] is on record?
Answer: slightly colored ppt

Question: Which Bioreactivity ([2]; in vivo) does the source give for `O=C(O)C1CCCN1` (stereo not shown) [d,1-proline] here?
Answer: ***

Question: For `O=C([O-])C(O)C(O)C(=O)[O-].[Na+].[Na+]` (stereo not shown) [disodium tartrate, reference compound], which Bioreactivity [2, 7] is on record?
Answer: no reactivity

Question: Which Bioreactivity [2, 6] does the source give for `CC(O)CO` (stereo not shown) [propylene glycol, reference compound] here?
Answer: no reactivity

Question: With `C=C[C@H]1C[N@@]2CC[C@H]1C[C@@H]2[C@@H](O)c1ccnc2ccc(OC)cc12` [quinidine, reference compound] as the compound, how does the Bioreactivity ([2]; Table 1, 2 % by weight) read?
Answer: *

Question: And the Bioreactivity [2, 5]?
Answer: *

Question: Which Bioreactivity ([2]; Table 1, 2 % by weight) does the source give for `C=C[C@H]1CN2CC[C@H]1C[C@H]2[C@H](O)c1ccnc2ccc(OC)cc12.O=S(=O)(O)O` [quinine hydrosulfate, reference compound] here?
Answer: *

Question: And the Bioreactivity [2, 5]?
Answer: *

Question: For Copper gluconate, which “Affinity Constant” value [4] is on record?
Answer: 10^6

Question: With Copper lacate as the compound, how does the “Affinity Constant” value [4] read?
Answer: 10^10-10^12

Question: With Copper tripeptide (GHG) as the compound, how does the “Affinity Constant” value [4] read?
Answer: 10^16

Question: Which Cosmetics [1] does the source give for Vitamin E here?
Answer: ugly brown ppt.

From US20060120980A1, “Novel dermatological composition using bio-activating organocatalysts” (priority 2004, published 2006)
